One block for each molecule: values may come before it.
Tests used:
[1] = system: subcutaneous SKOV3 tumors; set-up: species or system Nu/Nu mice; conditions: mouse, in vivo, iv
Text: Three female Nu/Nu mice (Charles River Laboratories, Cambridge, Mass.) each weighing approximately 20 g and bearing subcutaneous SKOV3 tumors (human ovary cancer cells, American Type Culture Collection (ATCC), Manassas, Va.) […], were used as test subjects. The first mouse was intravenously injected with gadopentetic acid containing a 0.072 mmol/kg dose of Gd-DTPA-PE (Magnevist™). The second mouse was intravenously injected with a non-targeted Gd-labeled nanoemulsion formulation of the present disclosure containing a 0.072 mmol/kg dose of Gd-DTPA-PE. The third mouse was intravenously injected with a folate receptor-targeted Gd-labeled nanoemulsion formulation of the present disclosure containing a 0.072 mmol/kg dose of the gadolinium-based MRI contrasting agent Gd-DTPA-PE. All three mice were full body scanned and imaged using a Bruker Biospec 20/70 MRI machine over a period of 24 hr.

[2] = Dose range finding plasma pharmacokinetic study; type: in vivo; conditions: CD-1 mice, iv; for AUC0-∞ / AUClast / Cl / Cmax / MRT / Tmax / Vd / t1/2: plasma docetaxel
Protocol: A dose range finding (DRF) study was conducted to determine the pharmacokinetic profile of folate receptor-targeted nanoemulsion formulations according to the disclosure administered to CD-1 mice at dose levels ranging from 1 mg/kg to 10 mg/kg. […] Blood was collected at 5 min, 30 min, 1 hr, 2 hr, 4 hr, 6 hr, 8 hr, 12 hr, and 24 hr after injection. Docetaxel concentration in the plasma was measured using a liquid chromatography-mass spectrometer (LC-MS/MS).
Pharmacokinetic parameters were calculated by non-compartmental analysis using Phoenix WinNonlin 6.2 version.

SKOV3 cells = assay: MTT cytotoxicity assay, SKOV3; type: cell-based, human; conditions: 72 hr treatment, mean±SD, n=8
Protocol: (§1) A tetrazolium (MTT) assay was performed, which measures the activity of cellular enzymes that reduces the MTT dye to insoluble formazan. SKOV3 and SKOV3TR cells were treated with corresponding test nanoemulsions or control solutions as indicated below in Table V. Polyethylenimine at 50 μg/ml was used as a positive control for cytotoxicity. […] After the completion of treatment, cells were incubated with MTT reagent (50 μg/well) for 2 hr, the resulting formazan crystals were dissolved in dimethyl sulfoxide ([…]) and measured at 570 nm in the Plate reader (Synergy HT, Biotek Instruments, Winooski, Vt.).
(§2) All IC50 values were obtained by analyzing the MTT assays results using Graphpad Prism 5 scientific data analysis software.

SKOV3TR cells = assay: MTT cytotoxicity assay, SKOV3TR; type: cell-based, human; conditions: 72 hr treatment, mean±SD, n=8, Pgp-expressing multidrug resistant cells
Protocol: In order to determine if the nanoemulsion formulations according to the disclosure produce a cytotoxic effect, the following experiments were done on SKOV3 and SKOV3TR cells. SKOV3TR cells express P-glycoprotein (Pgp), which produces chemotherapeutic agent efflux out of the cell and is associated with multidrug resistant cancer cells.
as §1, §2

[3] = 1 mg/kg docetaxel as folate receptor-targeted nanoemulsion formulation
[4] = 5 mg/kg docetaxel as folate receptor-targeted nanoemulsion formulation
[5] = 10 mg/kg docetaxel as folate receptor-targeted nanoemulsion formulation

- time by which tumor signal cleared to near baseline [1]: ≤ 6 h
Molecule: CNC[C@H](O)[C@@H](O)[C@H](O)[C@H](O)CO.CNC[C@H](O)[C@@H](O)[C@H](O)[C@H](O)CO.O=C([O-])CN(CCN(CC(=O)[O-])CC(=O)O)CCN(CC(=O)[O-])CC(=O)O.[Gd+3] [Magnevist, gadopentetic acid]

Molecule: docetaxel [Docetaxel in solution]
- AUC0-∞ [2, 3]: 475 ± 34 ng·h/mL
- AUClast [2, 3]: 789 ± 667 ng·h/mL
- Cl [2, 3]: 35.17 ± 2.55 mL/min/kg
- Cmax [2, 3]: 2125 ± 1181 ng/mL
- MRT [2, 3]: 1.53 ± 0.3 h
- Tmax [2, 3]: 4.98 min
- Vd [2, 3]: 13.275 ± 7.029 L/kg
- t1/2 [2, 3]: 4.29 ± 2 h
- dose dependence of plasma docetaxel pharmacokinetics ([2]; 1 mg/kg to 10 mg/kg, folate receptor-targeted nanoemulsion formulation): linear pharmacokinetics from 1 mg/kg to 5 mg/kg
- AUC0-∞ [2, 4]: 19095 ± 24050 ng·h/mL
- AUClast [2, 4]: 19026 ± 24077 ng·h/mL
- Cl [2, 4]: 15.4 ± 16.77 mL/min/kg
- Cmax [2, 4]: 38267 ± 31757 ng/mL
- MRT [2, 4]: 2.25 ± 0.5 h
- Tmax [2, 4]: 4.98 min
- Vd [2, 4]: 9.074 ± 12.083 L/kg
- t1/2 [2, 4]: 4.9 ± 2.6 h
- AUC0-∞ [2, 5]: 16719 ± 28251 ng·h/mL
- AUClast [2, 5]: 16653 ± 28251 ng·h/mL
- Cl [2, 5]: 16 ± 12.5 mL/min/kg
- Cmax [2, 5]: 52229 ± 28251 ng/mL
- MRT [2, 5]: 2.6 ± 1 h
- Tmax [2, 5]: 4.98 min
- Vd [2, 5]: 5.801 ± 5.151 L/kg
- t1/2 [2, 5]: 3.7 ± 1 h
- IC50 (SKOV3 cells): 1 ± 1.3 nM
- IC50 (SKOV3TR cells): 27000 nM

— US20140105829A1, “THERAPEUTIC NANOEMULSION FORMULATION FOR THE TARGETED DELIVERY OF DOCETAXEL AND METHODS OF MAKING AND USING THE SAME” (Nemucore Medical Innovations, Inc., priority 2012, published 2014)
